Laboratory results reported in the NIST ThermoML archive (doi:10.1016/j.jct.2018.03.019).
Numbers after ± are expanded uncertainties.

Details: Liquid, Ebulliometric method (Recirculating still)

CC(=O)N(C)C [N,N-dimethylethanamide]
vapor or sublimation pressure (439.05 K): 101.3 ± 0.71 kPa

CC(C)=O [acetone]
vapor or sublimation pressure (329.56 K): 101.3 ± 0.66 kPa

CC(C)N(C)C [N,N-dimethylisopropylamine]
vapor or sublimation pressure (339.13 K): 101.3 ± 0.71 kPa

O=Cc1ccco1 [2-furaldehyde]
vapor or sublimation pressure (435.15 K): 101.3 ± 0.71 kPa
